We go through three compounds from patent US12539406B2, “Electrostimulation based drug delivery system and method for using thereof” (City University of Hong Kong, priority 2022, dated 2026).

Data set [1] in a line: model drug release into agarose gel. The following applies: PLGA II microneedle patch inserted into agarose gel, 5 days. In kind it is physicochemical. An excerpt: The Rhodamine B-loaded PLGA II microneedle patch is then inserted into an agarose gel with a parafilm layer. The gel becomes red after the insertion of PLGA II microneedle patch loaded with Rhodamine B after 5 days while the control sample is still white. The insertion holes created by PLGA II with Rhodamine B show a higher florescence intensity (right panel in FIG. 4A) compared with that of the agar inserted by pure PLGA II microneedle patch (left panel in FIG. 4A).

Data set [2] can be described thus: long-term drug release from PLGA microneedle patches in PBS. The following applies: loaded in PLGA II microneedle patch, PBS solution at 37° C., after 15 days. In kind it is physicochemical. On the procedure: In addition, the long-term drug release performance of the PLGA II microneedle patch is conducted by loading aspirin and ibuprofen, which are two commonly used drugs in anti-inflammation. Aspirin- and ibuprofen-loaded PLGA microneedle patches are immersed in PBS solution at 37° C. for one month. […] The aspirin releases more than 80% while ibuprofen releases around 70% after 15 days, indicating a promising drug delivery performance of the PLGA microneedles.
Commercial aspirin (99%, Rhawn) or ibuprofen (98%, Macklin) were dissolved in chloroform and mixed with PLGA solution, where the mass of aspirin and ibuprofen are the weight ratio of 10% and 5% of PLGA polymers, respectively. Then the composite solution was added in a PDMS microneedle mold. The solutions in the mold were put in a vacuum over at 40° C. until no solvent remained. Finally, the solidified PLGA microneedles with mold were put at 100° C. heating stage for 2 h to remove residual solvent. After that, the obtained PLGA microneedles were heat pressed on the wireless electric stimulative electrodes, followed by depositing W (˜1000 nm) on the PLGA microneedle to yield the conductive microneedle electrodes.

With `CCN(CC)c1ccc2c(-c3ccccc3C(=O)O)c3ccc(=[N+](CC)CC)cc-3oc2c1.[Cl-]` [Rhodamine B], in data set [1], the “release of model drug from microneedle tips (fluorescence)” value is recorded as “successfully released”.
`CC(=O)Oc1ccccc1C(=O)O` [aspirin]: the drug release ratio entry in data set [2] is “more than 80%”.
Consider `CC(C)Cc1ccc(C(C)C(=O)O)cc1` (stereo not drawn) [ibuprofen], for which the drug release ratio entry in data set [2] is recorded as “around 70%”.
